According to US5216005A, “Immunosuppressive analogues and derivatives of succinylacetone” (priority 1990, dated 1993):

Tests used:
[1] = tested on: IL-2 (human lymphoid cells); assay: IL-2 production in primary mixed lymphocyte reaction (HT-2 cell assay); type: cell-based; parameters: IL-2: unit not given here; conditions: for IL-2: 1° MLR
Procedure: Derivatives of succinylacetone were tested for immunosuppressive activity in several different types of assay systems. The first consisted of measuring the amounts of interleukin-2 (IL-2), and interferon-γ (IFN-γ) produced by human lymphoid cells in a mixed lymphocyte reaction. Low levels of these molecules in the reaction mixture indicate that the immune system is being suppressed by the subject succinylacetone derivatives. IL-2 was measured by enumerating the number of viable HT-2 cells found after an 18-24 hours period. HT-2 cells are a mouse IL-2 dependent cell line which die in the absence of IL-2. The assay is described by Gillis et al., J. of Immunol. […] The mixed lymphocyte reaction assay can be carried out by techniques well known to those skilled in the art. L. Hudson and F. C. Huy, Practical Immunology, p. […] Briefly this consists of isolating lymphocytes from human peripheral blood by standard density gradient centrifugation techniques from two separate individuals. Approximately 2×10^5 lymphocytes of each individual are combined to yield a total of 4×10^5 lymphocytes per culture. All procedures are carried out under sterile conditions, and the lymphocytes are isolated and kept in physiologically compatible solutions. To the mixture of lymphocytes is added a desired amount of an appropriate succinylacetone derivative, and after different times an aliquot of the mixture is removed and assayed for IL-2 or IFN-γ, or ^[…] is measured.

[2] = tested on: IFN-γ (human lymphoid cells); assay: IFN-γ production in primary mixed lymphocyte reaction (WISH cells/EMC virus assay); type: cell-based; parameters: IFN-γ: unit not given here; conditions: for IFN-γ: 1° MLR
Procedure: Derivatives of succinylacetone were tested for immunosuppressive activity in several different types of assay systems. The first consisted of measuring the amounts of interleukin-2 (IL-2), and interferon-γ (IFN-γ) produced by human lymphoid cells in a mixed lymphocyte reaction. Low levels of these molecules in the reaction mixture indicate that the immune system is being suppressed by the subject succinylacetone derivatives.
IFN-γ was determined by measuring the amount of protection conveyed on human WISH cells against the cytopathic effects of encephalomyocarditis virus (EMC). This assay is described by I. A. Braude, J. of Immunol. Methods 63:237 (1983). Both publications are hereby incorporated by reference.
The mixed lymphocyte reaction assay can be carried out by techniques well known to those skilled in the art. L. Hudson and F. C. Huy, Practical Immunology, p. 260, Blackwell Scientific Publications (1976). Briefly this consists of isolating lymphocytes from human peripheral blood by standard density gradient centrifugation techniques from two separate individuals. Approximately 2×10^5 lymphocytes of each individual are combined to yield a total of 4×10^5 lymphocytes per culture. All procedures are carried out under sterile conditions, and the lymphocytes are isolated and kept in physiologically compatible solutions. To the mixture of lymphocytes is added a desired amount of an appropriate succinylacetone derivative, and after different times an aliquot of the mixture is removed and assayed for IL-2 or IFN-γ, or ^3 H-T is measured.

human lymphocytes = assay: phytohemagglutinin (PHA) stimulation assay, tritiated thymidine uptake; type: cell-based
Procedure: A second assay widely used to study immune responsiveness is mitogenic stimulation of thymocytes with antigenic substances of plant origin. The most widely used plant molecule is phytohemagglutinin (PHA).
The procedure for carrying out the phytohaemagglutinin assay is also well known to those skilled in the art. Briefly, it consists of isolating human lymphocytes as described above, and incubating about 1.0×10^6 cells per ml in a suitable physiological solution with phytohaemagglutinin, and the appropriate concentration of succinylacetone-proline-NH-PEG. Tritiated thymidine is added 48 hours later and allowed to incubate for twenty-four hours before the cells are counted.

[3] = tested on: adjuvant induced arthritis; assay: adjuvant induced arthritis in rats, overall arthritis score; intraarticular right paw, per kg: succinylacetone 325 μg, methyl ester 150 μg, 4-acetyl-5-oxohexanoate 560 μg; type: in vivo, rat

## COC(=O)CCC(C(C)=O)C(C)=O [Methyl 4-Acetyl-5-Oxohexanoate, methyl 4-acetyl-5-oxohexanoate]
[1]; Exp I, 3 μM
  IL-2: 29
[1]; Exp I, 9 μM
  IL-2: 46
[1]; Exp I, 27 μM
  IL-2: 30
[1]; Exp I, 81 μM
  IL-2: 42
[1]; Exp I, 244 μM
  IL-2: 17
[1]; Exp I, 733 μM
  IL-2: 17
[1]; Exp I, 2.2 mM
  IL-2: 9
[1]; Exp I, 6.7 mM
  IL-2: < 6
[1]; Exp I, 20 mM
  IL-2: < 6
[1]; Exp II, 3 μM
  IL-2: 70
[1]; Exp II, 9 μM
  IL-2: 85
[1]; Exp II, 27 μM
  IL-2: 52
[1]; Exp II, 81 μM
  IL-2: 70
[1]; Exp II, 244 μM
  IL-2: 52
[1]; Exp II, 733 μM
  IL-2: 70
[1]; Exp II, 2.2 mM
  IL-2: 35
[1]; Exp II, 6.7 mM
  IL-2: < 12
[1]; Exp II, 20 mM
  IL-2: < 12
[1]; Homo sapiens, HT2, primary MLR, read-out: concentration causing 50% reduction in IL-2 production
  IC50: ~2200 µM
[2]; Exp I, 3 μM
  IFN-γ: 1260
[2]; Exp I, 9 μM
  IFN-γ: 1260
[2]; Exp I, 27 μM
  IFN-γ: 1260
[2]; Exp I, 81 μM
  IFN-γ: 1313
[2]; Exp I, 244 μM
  IFN-γ: 998
[2]; Exp I, 733 μM
  IFN-γ: 570
[2]; Exp I, 2.2 mM
  IFN-γ: 285
[2]; Exp I, 6.7 mM
  IFN-γ: < 285
[2]; Exp I, 20 mM
  IFN-γ: < 285
[2]; Exp II, 3 μM
  IFN-γ: 1144
[2]; Exp II, 9 μM
  IFN-γ: 1248
[2]; Exp II, 27 μM
  IFN-γ: 1248
[2]; Exp II, 81 μM
  IFN-γ: 1560
[2]; Exp II, 244 μM
  IFN-γ: 1953
[2]; Exp II, 733 μM
  IFN-γ: 1172
[2]; Exp II, 2.2 mM
  IFN-γ: 703
[2]; Exp II, 6.7 mM
  IFN-γ: < 469
[2]; Exp II, 20 mM
  IFN-γ: < 469
[2]; Homo sapiens, Lymphocyte, primary MLR, read-out: concentration causing 50% reduction in IFN-γ production
  IC50: ~2200 µM
Human lymphocytes; Homo sapiens, Lymphocyte, both assays (two individuals), read-out: concentration causing about 50% inhibition in PHA stimulation
  IC50: ~309 µM
Human lymphocytes; first experiment, 3.8 μM
  PHA stimulation, cpm ± SD: 19888 cpm
Human lymphocytes; first experiment, 11 μM
  PHA stimulation, cpm ± SD: 19401 cpm
Human lymphocytes; first experiment, 34 μM
  PHA stimulation, cpm ± SD: 19399 cpm
Human lymphocytes; first experiment, 103 μM
  PHA stimulation, cpm ± SD: 18677 cpm
Human lymphocytes; first experiment, 309 μM
  PHA stimulation, cpm ± SD: 14098 cpm
Human lymphocytes; first experiment, 926 μM
  PHA stimulation, cpm ± SD: 2776 cpm
Human lymphocytes; first experiment, 2.8 mM
  PHA stimulation, cpm ± SD: 116 cpm
Human lymphocytes; first experiment, 25 mM
  PHA stimulation, cpm ± SD: 200 cpm
Human lymphocytes; first experiment, 83 mM
  PHA stimulation, cpm ± SD: 192 cpm
Human lymphocytes; second experiment, 3.8 μM
  PHA stimulation, cpm ± SD: 33799 cpm
Human lymphocytes; second experiment, 11 μM
  PHA stimulation, cpm ± SD: 33417 cpm
Human lymphocytes; second experiment, 34 μM
  PHA stimulation, cpm ± SD: 34006 cpm
Human lymphocytes; second experiment, 103 μM
  PHA stimulation, cpm ± SD: 30569 cpm
Human lymphocytes; second experiment, 309 μM
  PHA stimulation, cpm ± SD: 19713 cpm
Human lymphocytes; second experiment, 926 μM
  PHA stimulation, cpm ± SD: 5600 cpm
Human lymphocytes; second experiment, 2.8 mM
  PHA stimulation, cpm ± SD: 717 cpm
Human lymphocytes; second experiment, 25 mM
  PHA stimulation, cpm ± SD: 200 cpm
Human lymphocytes; second experiment, 83 mM
  PHA stimulation, cpm ± SD: 156 cpm
[3]; Exp. I (treated from same day), day 14
  overall arthritis score: 3.2 ± 2.2
[3]; Exp. I (treated from same day), day 16
  overall arthritis score: 3.4 ± 2.2
[3]; Exp. I (treated from same day), day 18
  overall arthritis score: 5.0 ± 3.2
[3]; Exp. I (treated from same day), day 20
  overall arthritis score: 7.0 ± 4.0
[3]; Exp. I (treated from same day), day 22
  overall arthritis score: 8.2 ± 4.9
[3]; Exp. I (treated from same day), day 24
  overall arthritis score: 7.2 ± 4.2
[3]; Exp. I (treated from same day), day 26
  overall arthritis score: 7.2 ± 4.2
[3]; Exp. II (treated from day 4), day 14
  overall arthritis score: 1.0 ± 1.4
[3]; Exp. II (treated from day 4), day 16
  overall arthritis score: 2.2 ± 2.5
[3]; Exp. II (treated from day 4), day 18
  overall arthritis score: 1.8 ± 1.8
[3]; Exp. II (treated from day 4), day 20
  overall arthritis score: 2.2 ± 2.0
[3]; Exp. II (treated from day 4), day 22
  overall arthritis score: 5.0 ± 3.5
[3]; Exp. II (treated from day 4), day 24
  overall arthritis score: 3.4 ± 3.6
[3]; Exp. II (treated from day 4), day 26
  overall arthritis score: 4.0 ± 3.7
[3]; Exp. III (treated from day 14), day 14
  overall arthritis score: 2.0 ± 2.0
[3]; Exp. III (treated from day 14), day 16
  overall arthritis score: 2.4 ± 1.5
[3]; Exp. III (treated from day 14), day 18
  overall arthritis score: 3.4 ± 2.6
[3]; Exp. III (treated from day 14), day 20
  overall arthritis score: 5.6 ± 2.7
[3]; Exp. III (treated from day 14), day 22
  overall arthritis score: 7.4 ± 4.8
[3]; Exp. III (treated from day 14), day 24
  overall arthritis score: 7.4 ± 5.3
[3]; Exp. III (treated from day 14), day 26
  overall arthritis score: 7.4 ± 5.3
[3]; comparison of treatment schedules, in words
  effect on arthritis: apparently most active when administered every other day from day 4 to day 24
